Values of other authors, collected in US8536091B2, “System for protection of plants from pathogens using alkamides” (priority 2008, dated 2013).

Tested on: microbial plant pathogens, including bacteria and fungi
Settings: in the absence of plants; relatively high levels

C/C=C/C=C\CC/C=C/C(=O)NCC(C)C [affinin, N-isobutyl-deca-2E,6Z,8E-trieneamide]
in vitro growth inhibition of microbial plant pathogens: inhibit the growth of some microbial plant pathogens
